From ChEMBL document CHEMBL1158260, “Six lignans from Phyllanthus myrtifolius” (J Nat Prod, 1996)
Active and inactive are the calls of the source. The rule behind the calls is not given here.

Assays:
[1] = molecular target: Human immunodeficiency virus type 1 reverse transcriptase (Human immunodeficiency virus 1) (UniProt Q72547); assay: (§1) Inhibition of HIV1 reverse transcriptase
[2] = molecular target: Human immunodeficiency virus type 1 reverse transcriptase (Human immunodeficiency virus 1) (UniProt Q72547); assay: Increase in HIV1 reverse transcriptase activity at 1.89 uM
[3] = molecular target: Human immunodeficiency virus type 1 reverse transcriptase (Human immunodeficiency virus 1) (UniProt Q72547); assay: Increase in HIV1 reverse transcriptase activity at 18.9 uM relative to control
[4] = Inhibition of human DNA polymerase alpha
[5] = molecular target: Human immunodeficiency virus type 1 reverse transcriptase (Human immunodeficiency virus 1, UniProt Q72547); assay: as §1
[6] = molecular target: Human immunodeficiency virus type 1 reverse transcriptase (Human immunodeficiency virus 1) (UniProt Q72547); assay: Inhibition of HIV1 reverse transcriptase at 10 uM

SMILES	Activity [1]	IC50 [4] [µM]	IC50 [5] [µM]	also measured
COc1cc2c(O[C@@H]3O[C@H](CO)[C@@H](O)[C@H](O)[C@H]3O)c(CO)c(C)c(-c3ccc4c(c3)OCO4)c2cc1OC				Activity [2]: 210%; Activity [3]: 65%
COc1cc2cc3c(c(-c4ccc5c(c4)OCO5)c2cc1OC)COC3=O [RETROJUSTICIDIN B]		989	5.5	
COc1cc2cc3c(c(-c4ccc5c(c4)OCO5)c2cc1OC)C(=O)OC3OC (centres undefined)				inhibition [6]: 20%
COCc1cc2cc(OC)c(OC)cc2c(-c2ccc3c(c2)OCO3)c1C=O [PHYLLAMYRICIN B]		289	3.5	

The next lines start with results.

Activity [1]	SMILES	IC50 [4] [µM]	IC50 [5] [µM]	also measured
inactive	COc1cc(-c2c(C)c(CO)c(O[C@@H]3O[C@H](CO)[C@@H](O)[C@H](O)[C@H]3O)c3cc(OC)c(OC)cc23)ccc1O			
inactive	COc1cc2c(O[C@@H]3O[C@H](CO)[C@@H](O)[C@H](O)[C@H]3O)c(CO)c(CO)c(-c3ccc4c(c3)OCO4)c2cc1OC			
